Laboratory results reported in patent US9321735B2, “Insecticidal triazines and pyrimidines” (Vestaron Corporation, priority 2010, dated 2016).

System: beet army worm (Spodoptera exigua)
Assay: Insecticidal test for beet armyworm (diet surface treatment, larval mortality)
Type: in vivo
Details: 100 μg/cm^2 on diet surface; first instar larvae, 32 insects per treatment; observations 24, 48 and 96 hours after treatment
Experimental: The compounds identified in Table 8 were prepared according to the previous methods and were tested against beet armyworm and corn earworm as follows:
Insecticidal Test for Beet Armyworm (Spodoptera Exigua).
To prepare the test solution, the test compound was Formulated at 3499 ppm in solution as 5 mg compound/1.429 mL of 9 parts acetone: 1 part deionized H2O and vortexed to homogenize. 50 μL of the 3499 ppm (equivalent to 100 μg/cm^2 dose on diet surface area) test solution was pipetted upon the surface of 1 mL of solidified cool Southland Products Incorporated Beet Armyworm Diet (201 Stuart Island Road Lake Village, Ark. 71653) using an Eppendorf Repeater Plus with a 1 mL pipette tip. All pipetting of treatments was done in a Labconco Hood. Thirty minutes were allowed for the acetone to evaporate leaving a dose of 100 μg/cm^2 on the surface of the artificial diet. Two 24 hour old first instar Beet Armyworm(Spodoptera Exigua) larvae were placed in each well of the 128 well Bio-BA 128 Bioassay trays (CD International, Pitman, N.J., 08071, USA) using a #0 fine camel hair paint brush. Bioassay trays were sectioned into treatment groups of 8 with 16 replicates per treatment group (32 insects per treatment). […] The number of insects dead were counted out of the 32 insects total per treatment and the results are given in a table as a percent mortality at a dose of 100 μg/cm^2. […]

Fc1cccc(Cl)c1-c1nc(NN=Cc2ccc(C(F)(F)F)cc2)nc(Nc2ccc(Cl)nc2)n1 [Example 51, 4-(2-chloro-6-fluorophenyl)-N-(6-chloropyridin-3-yl)-6-(2-(4-(trifluoromethyl)benzylidene)hydrazinyl)-1,3,5-triazin-2-amine]
Mortality: A (A=76-100% mortality)
